According to patent US12084472B2 (Ardelyx, Inc., priority 2015, dated 2024):

molecular target: T1, human TGR5 (Homo sapiens, UniProt Q8TDU6); test: Cell-based TGR5 assay (cAMP generation, HTRF); settings: HEK293 cells stably transfected with human TGR5; cAMP by HTRF; 30 minutes at 37° C.; read-out: pEC50 Human TGR5 (converted)
T1 construct: expressed in transfected cells; host or cells: HEK293
T1 sequence (Q8TDU6 1-330): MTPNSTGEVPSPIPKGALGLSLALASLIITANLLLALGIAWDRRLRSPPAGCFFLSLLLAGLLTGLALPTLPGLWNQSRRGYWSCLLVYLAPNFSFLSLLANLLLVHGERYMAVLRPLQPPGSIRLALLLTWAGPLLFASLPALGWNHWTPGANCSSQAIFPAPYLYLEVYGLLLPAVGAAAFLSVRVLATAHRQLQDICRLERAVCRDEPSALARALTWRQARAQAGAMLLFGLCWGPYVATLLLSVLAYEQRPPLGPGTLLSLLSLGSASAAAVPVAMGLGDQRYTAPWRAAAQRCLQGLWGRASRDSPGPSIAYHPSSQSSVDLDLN
In short: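 First, compounds in 3-fold serial dilution were placed in HBSS with 10 mM HEPES pH 7.4 and 0.5 mM IBMX. Next, human TGR5-expressing HEK293 cells were added and incubated 30 min at 37° C. Finally, cAMP was detected by HTRF and pEC50 derived by logistic fitting.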

| Compound | EC50 [nM] |
| --- | --- |
| CC(=O)NCCCN(CCCSc1ccc(Cl)c(CNC2(c3cnccc3-c3ccccc3OC3CC3)CC2)c1)C(=O)[C@@H](O)[C@@H](O)[C@H](O)[C@@H](O)CO [Compound I-589, (2S,3S,4R,5S)-N-[3-({4-chloro-3-[({1-[4-(2-cyclopropoxyphenyl)pyridin-3-yl]cyclopropyl}amino)methyl]phenyl}sulfanyl)propyl]-N-(3-acetamidopropyl)-2,3,4,5,6-pentahydroxyhexanamide] | 126 to 1000 |
| Clc1ccc(COC2(c3cnccc3-c3ccccc3OC3CC3)CC2)c(Cl)c1 [Compound I-48, 4-(2-cyclopropoxyphenyl)-3-{1-[(2,4-dichlorophenyl)methoxy]cyclopropyl}pyridine] | 126 to 1000 |
| Cc1cc(CNC2(c3cnccc3-c3ccccc3OC3CC3)CC2)c(C)cc1CCCCC(=O)NC[C@H](O)[C@@H](O)[C@H](O)[C@H](O)CO [Compound I-148, 5-{4-[({1-[4-(2-cyclopropoxyphenyl)pyridin-3-yl]cyclopropyl}amino)methyl]-2,5-dimethylphenyl}-N-[(2S,3R,4R,5R)-2,3,4,5,6-pentahydroxyhexyl]pentanamide] | 126 to 1000 |
| CN(C[C@H](O)[C@@H](O)[C@H](O)[C@H](O)CO)C(=O)CCCCSc1ccc(Cl)c(COC2(c3cnccc3-c3ccccc3OC3CC3)CC2)c1 [Compound I-682, 5-{[4-chloro-3-({1-[4-(2-cyclopropoxyphenyl)pyridin-3-yl]cyclopropoxy}methyl)phenyl]sulfanyl}-N-methyl-N-[(2S,3R,4R,5R)-2,3,4,5,6-pentahydroxyhexyl]pentanamide] | < 100 |
| O=C1NCCN1CCN(CCCSc1ccc(Cl)c(CNC2(c3cnccc3-c3ccccc3OC3CC3)CC2)c1)C(=O)[C@@H](O)[C@@H](O)[C@H](O)[C@@H](O)CO [Compound I-531, (2S,3S,4R,5S)-N-[3-({4-chloro-3-[({1-[4-(2-cyclopropoxyphenyl)pyridin-3-yl]cyclopropyl}amino)methyl]phenyl}sulfanyl)propyl]-2,3,4,5,6-pentahydroxy-N-[2-(2-oxoimidazolidin-1-yl)ethyl]hexanamide] | 126 to 1000 |
| Cc1cc(COC2(c3cnccc3-c3ccccc3OC3CC3)CC2)c(Cl)cc1CCCCN(CCCCCO)C(=O)NC[C@H](O)[C@@H](O)[C@H](O)[C@H](O)CO [Compound I-118, 1-{4-[5-chloro-4-({1-[4-(2-cyclopropoxyphenyl)pyridin-3-yl]cyclopropoxy}methyl)-2-methylphenyl]butyl}-1-(5-hydroxypentyl)-3-[(2S,3R,4R,5R)-2,3,4,5,6-pentahydroxyhexyl]urea] | < 100 |
| COCCN(CCCCc1cc(Cl)c(COC2(c3cnccc3-c3ccccc3OC3CC3)CC2)cc1Cl)C(=O)[C@@H](O)[C@@H](O)[C@H](O)[C@@H](O)CO [Compound I-206, (2S,3S,4R,5S)-N-{4-[2,5-dichloro-4-({1-[4-(2-cyclopropoxyphenyl)pyridin-3-yl]cyclopropoxy}methyl)phenyl]butyl}-2,3,4,5,6-pentahydroxy-N-(2-methoxyethyl)hexanamide] | < 100 |
| CCOC(=O)NCCN(CCCSc1ccc(Cl)c(CNC2(c3cnccc3-c3ccccc3OC3CC3)CC2)c1)C(=O)[C@@H](O)[C@@H](O)[C@H](O)[C@@H](O)CO [Compound I-587, ethyl N-{2-[(2S,3S,4R,5S)-N-[3-({4-chloro-3-[({1-[4-(2-cyclopropoxyphenyl)pyridin-3-yl]cyclopropyl}amino)methyl]phenyl}sulfanyl)propyl]-2,3,4,5,6-pentahydroxyhexanamido]ethyl}carbamate] | 126 to 1000 |
| C[C@@H](CCCCC(=O)N(C)C[C@H](O)[C@@H](O)[C@H](O)[C@H](O)CO)c1ccc(Cl)c(CNC2(c3cnccc3-c3ccccc3OC3CC3)CC2)c1 (single isomer, unassigned) [Compound I-328] | < 100 |
| CN(C[C@H](O)[C@@H](O)[C@H](O)[C@H](O)CO)C(=O)CN1CCN(C(=O)CCCCc2cc(Cl)c(COC3(c4cnccc4-c4ccccc4OC4CC4)CC3)cc2Cl)CC1 [Compound I-89, 2-(4-(5-(2,5-dichloro-4-((1-(4-(2-cyclopropoxyphenyl)pyridin-3-yl)cyclopropoxy)methyl)phenyl)pentanoyl)piperazin-1-yl)-N-methyl-N-((2S,3R,4R,5R)-2,3,4,5,6-pentahydroxyhexyl)acetamide] | < 100 |
| Cc1cnc(SCCCC(=O)N(C)C[C@H](O)[C@@H](O)[C@H](O)[C@H](O)CO)nc1CNC1(c2cnccc2-c2ccccc2OC2CC2)CC1 [Compound I-656, 4-({4-[({1-[4-(2-cyclopropoxyphenyl)pyridin-3-yl]cyclopropyl}amino)methyl]-5-methylpyrimidin-2-yl}sulfanyl)-N-methyl-N-[(2S,3R,4R,5R)-2,3,4,5,6-pentahydroxyhexyl]butanamide] | 12600 to 50100 |
| O=C(O)CCCCc1cc(Cl)c(COC2(c3cnccc3-c3ccccc3OC3CC3)CC2)cc1Cl [Compound I-157, 5-[2,5-dichloro-4-({1-[4-(2-cyclopropoxyphenyl)pyridin-3-yl]cyclopropoxy}methyl)phenyl]pentanoic acid] | < 100 |
| Cc1ccc(S(=O)(=O)N(C)CCCCNC(=O)NC[C@H](O)[C@@H](O)[C@H](O)[C@H](O)CO)cc1COC1(c2cnccc2-c2ccccc2OC2CC2)CC1 [Compound I-479, 1-{4-[N-methyl3-({1-[4-(2-cyclopropoxyphenyl)pyridin-3-yl]cyclopropoxy}methyl)-4-methylbenzenesulfonamido]butyl}-3-[(2S,3R,4R,5R)-2,3,4,5,6-pentahydroxyhexyl]urea] | < 100 |
| O=C(CCCCc1cc(Cl)c(COC2(c3cnccc3-c3ccccc3OC3CC3)CC2)cc1Cl)NC[C@H](O)[C@@H](O)[C@H](O)[C@H](O)CO [Compound I-135, 5-[2,5-dichloro-4-({1-[4-(2-cyclopropoxyphenyl)pyridin-3-yl]cyclopropoxy}methyl)phenyl]-N-[(2S,3R,4R,5R)-2,3,4,5,6-pentahydroxyhexyl]pentanamide] | < 100 |
| O=C(NC[C@H](O)[C@@H](O)[C@H](O)[C@H](O)CO)c1ccc(CCc2ccc(Cl)c(COC3(c4cnccc4-c4ccccc4OC4CC4)CC3)c2)cc1 [Compound I-724, 4-(4-Chloro-3-((1-(4-(2-cyclopropoxyphenyl)pyridin-3-yl)cyclopropoxy)methyl)phenethyl)-N-((2S,3R,4R,5R)-2,3,4,5,6-pentahydroxyhexyl)benzamide] | 126 to 1000 |
| O=C(CCCCc1cc(Cl)c(CNC2(c3cnccc3-c3ccccc3OC3CC3)CC2)cc1Cl)NC[C@H](O)[C@@H](O)[C@H](O)[C@H](O)CO [Compound I-62, 5-[2,5-dichloro-4-[([1-[4-(2-cyclopropoxyphenyl)pyridin-3-yl]cyclopropyl]amino)methyl]phenyl]-N-[(2S,3R,4R,5R)-2,3,4,5,6-pentahydroxyhexyl]pentanamide] | 126 to 1000 |
| O=C(NCCCCCS(=O)(=O)c1ccc(Cl)c(COC2(c3cnccc3-c3ccccc3OC3CC3)CC2)c1)N[C@@H](CO)[C@@H](O)[C@H](O)[C@H](O)CO [Compound I-643, 1-{5-[4-chloro-3-({1-[4-(2-cyclopropoxyphenyl)pyridin-3-yl]cyclopropoxy}methyl)benzenesulfonyl]pentyl}-3-[(2S,3R,4S,5R)-1,3,4,5,6-pentahydroxyhexan-2-yl]urea] | < 100 |
| O=C([C@@H](O)[C@@H](O)[C@H](O)[C@@H](O)CO)N(CCCCSc1ccc(Cl)c(CNC2(c3cnccc3-c3ccccc3OC3CC3)CC2)c1)CC1CCOCC1 [Compound I-536, (2S,3S,4R,5S)-N-[4-({4-chloro-3-[({1-[4-(2-cyclopropoxyphenyl)pyridin-3-yl]cyclopropyl}amino)methyl]phenyl}sulfanyl)butyl]-2,3,4,5,6-pentahydroxy-N-(oxan-4-ylmethyl)hexanamide] | 126 to 1000 |
| O=C(NCCCCNC(=O)NC[C@H](O)[C@@H](O)[C@H](O)[C@H](O)CO)NCCCCSc1ccc(Cl)c(COC2(c3cnccc3-c3ccccc3OC3CC3)CC2)c1 [Compound I-629, 1-(4-{[(4-{[4-chloro-3-({1-[4-(2-cyclopropoxyphenyl)pyridin-3-yl]cyclopropoxy}methyl)phenyl]sulfanyl}butyl)carbamoyl]amino}butyl)-3-[(2S,3R,4R,5R)-2,3,4,5,6-pentahydroxyhexyl]urea] | < 100 |
| CN(CCCCNC(=O)NC[C@H](O)[C@@H](O)[C@H](O)[C@H](O)CO)S(=O)(=O)c1cc(COC2(c3cnccc3-c3ccccc3OC3CC3)CC2)c(Cl)cc1F [Compound I-466, 1-{4-[N-methyl4-chloro-5-({1-[4-(2-cyclopropoxyphenyl)pyridin-3-yl]cyclopropoxy}methyl)-2-fluorobenzenesulfonamido]butyl}-3-[(2S,3R,4R,5R)-2,3,4,5,6-pentahydroxyhexyl]urea] | < 100 |
| O=C(NCCOCCSc1ccc(Cl)c(CNC2(c3cnccc3-c3ccccc3OC3CC3)CC2)c1)NC[C@H](O)[C@@H](O)[C@H](O)[C@H](O)CO [Compound I-626, 1-{2-[2-({4-chloro-3-[({1-[4-(2-cyclopropoxyphenyl)pyridin-3-yl]cyclopropyl}amino)methyl]phenyl}sulfanyl)ethoxy]ethyl}-3-[(2S,3R,4R,5R)-2,3,4,5,6-pentahydroxyhexyl]urea] | < 100 |
| Cc1cc(COC2(c3cnccc3-c3ccccc3OC3CC3)CC2)c(Cl)cc1CCCCN(C)C(=O)NC[C@H](O)[C@@H](O)[C@H](O)[C@H](O)CO [Compound I-115, 1-{4-[5-chloro-4-({1-[4-(2-cyclopropoxyphenyl)pyridin-3-yl]cyclopropoxy}methyl)-2-methylphenyl]butyl}-1-methyl-3-[(2S,3R,4R,5R)-2,3,4,5,6-pentahydroxyhexyl]urea] | < 100 |
